{"source": "patent US20090111837A1", "about": "“USE OF PDE7 INHIBITORS FOR THE TREATMENT OF NEUROPATHIC PAIN” (priority 2005, published 2009)", "key": {"[1]": {"test_system": "CCI-induced dynamic allodynia", "test": "Dynamic allodynia (cotton bud stroking) in the chronic constriction injury (CCI) rat model of neuropathic pain", "format": "in vivo", "description": "Male Sprague Dawley rats weighing 150-400 g obtained from Charles River (Manston, Kent, UK.) were housed in groups of 4. All animals were kept under a 12 h light/dark cycle (lights on at 07 h 00 min) with food and water ad libitum. All experiments were carried out by an observer blind to the treatments and in accordance with the Home Office Animals (Scientific Procedures) Act 1986. The CCI of sciatic nerve was performed as previously described by Bennett and Xie (Bennett G J, Xie Y K. A peripheral mononeuropathy in rat that produces disorders of pain sensation like those seen in man. Pain: 33:87-107, 1988). Animals were anaesthetised with a 2% isofluorane/O2 mixture. The right hind thigh was shaved and swabbed with 1% iodine. Animals were then transferred to a homeothermic blanket for the duration of the procedure and anaesthesia maintained during surgery via a nose cone. The skin was cut along the line of the thighbone. The common sciatic nerve was exposed at the middle of the thigh by blunt dissection through biceps femoris. About 7 mm of nerve was freed proximal to the sciatic trifurcation, by inserting forceps under the nerve and the nerve gently lifted out of the thigh. Suture was pulled under the nerve using forceps and tied in a simple knot until slight resistance was felt and then double knotted. The procedure was repeated until 4 ligatures (4-0 silk) were tied loosely around the nerve with approx 1 mm spacing. The incision was closed in layers. Dynamic allodynia was assessed by lightly stroking the plantar surface of the hind paw with a cotton bud. To avoid recording general motor activity, care was taken to perform this procedure in fully habituated rats that were not active. At least two measurements were taken at each time point, the mean of which represented the paw withdrawal latency (PWL). […] A pain withdrawal response was often accompanied with repeated flinching or licking of the paw. Dynamic allodynia was considered to be present if animals responded to the cotton stimulus within 8 sec of commencing stroking (Field et al, 1999). All the experiments were conducted in blind. When the experiment was carried out in more then one day and where technically possible, all groups occurred on each day with equal replication. Static allodynia was expressed as median [LQ; UQ] and analysed by Mann Whitney U test. Dynamic allodynia was expressed as arithmetic mean±SEM and analysed by ANOVA."}, "[2]": {"test_system": "CCI-induced static allodynia", "test": "Static allodynia (von Frey hairs) in the chronic constriction injury (CCI) rat model of neuropathic pain", "format": "in vivo", "description": "Male Sprague Dawley rats weighing 150-400 g obtained from Charles River (Manston, Kent, UK.) were housed in groups of 4. All animals were kept under a 12 h light/dark cycle (lights on at 07 h 00 min) with food and water ad libitum. All experiments were carried out by an observer blind to the treatments and in accordance with the Home Office Animals (Scientific Procedures) Act 1986.\nThe CCI of sciatic nerve was performed as previously described by Bennett and Xie (Bennett G J, Xie Y K. A peripheral mononeuropathy in rat that produces disorders of pain sensation like those seen in man. Pain: 33:87-107, 1988). Animals were anaesthetised with a 2% isofluorane/O2 mixture. The right hind thigh was shaved and swabbed with 1% iodine. Animals were then transferred to a homeothermic blanket for the duration of the procedure and anaesthesia maintained during surgery via a nose cone. The skin was cut along the line of the thighbone. The common sciatic nerve was exposed at the middle of the thigh by blunt dissection through biceps femoris. About 7 mm of nerve was freed proximal to the sciatic trifurcation, by inserting forceps under the nerve and the nerve gently lifted out of the thigh. Suture was pulled under the nerve using forceps and tied in a simple knot until slight resistance was felt and then double knotted. The procedure was repeated until 4 ligatures (4-0 silk) were tied loosely around the nerve with approx 1 mm spacing. The incision was closed in layers.\nAnimals were habituated to wire bottom test cages prior to the assessment of allodynia. Static allodynia was evaluated by application of von Frey hairs (Stoelting, Wood Dale, Ill., USA.) in ascending order of force (0.6, 1, 1.4, 2, 4, 6, 8, 10, 15 and 26 grams) to the plantar surface of hind paws. Each von Frey hair was applied to the paw for a maximum of 6 sec, or until a withdrawal response occurred. Once a withdrawal response to a von Frey hair was established, the paw was re-tested, starting with the filament below the one that produced a withdrawal, and subsequently with the remaining filaments in descending force sequence until no withdrawal occurred. The highest force of 26 g lifted the paw as well as eliciting a response, thus represented the cut off point. Each animal had both hind paws tested in this manner. The lowest amount of force required to elicit a response was recorded as paw withdrawal threshold (PWT) in grams. Static allodynia was defined as present if animals responded to a stimulus of, or less than, 4 g, which is innocuous in naive rats (Field M J, Bramwell S, Hughes J, Singh L. Detection of static and dynamic components of mechanical allodynia in rat models of neuropathic pain: are they signalled by distinct primary sensory neurones? Pain, 1999; 83:303-11).\nAll the experiments were conducted in blind. When the experiment was carried out in more then one day and where technically possible, all groups occurred on each day with equal replication. Static allodynia was expressed as median [LQ; UQ] and analysed by Mann Whitney U test. Dynamic allodynia was expressed as arithmetic mean±SEM and analysed by ANOVA."}, "[3]": {"conditions": "CCI rats, PO, 0.3, 1 and 3 mg/kg"}, "[4]": {"conditions": "CCI rats, PO, post administration"}, "[5]": {"conditions": "CCI rats, oral (PO), doses 0.3, 1 and 3 mg/kg"}, "[6]": {"conditions": "highest dose (3 mg/kg PO) vs gabapentin 100 mg/kg PO"}, "[7]": {"conditions": "highest dose (3 mg/kg PO), post dose, p<0.01 vs vehicle"}}, "data": [{"smiles": "O=C(O)CCCOc1ccc(Cl)c2c1C1(CCCCC1)NC(=O)N2", "note": "[5′-(3-(Carboxy)propoxy)-8′-chlorospiro[cyclohexane-1,4′-quinazolin]-2′(1′H)-one]", "values": [{"measurement": "effect on CCI-induced dynamic allodynia", "setting": "[1]; [3]", "result": "reversed the maintenance of CCI-induced static and dynamic allodynia in a dose dependent manner"}, {"measurement": "time of peak effect, dynamic allodynia", "setting": "[1]; [4]", "result": 1, "unit": "h"}, {"measurement": "MED for dynamic allodynia", "setting": "[1]; [5]", "result": 3, "unit": "mg/kg"}, {"measurement": "dynamic allodynia effect versus gabapentin", "setting": "[1]; [6]", "result": "less potent but significantly different from vehicle treated CCI rats"}, {"measurement": "dynamic allodynia, paw withdrawal latency (mean±SEM)", "setting": "[1]; highest dose (3 mg/kg PO), 1 hrs post administration, vehicle treated CCI rats 3.7±0.7, latency recorded in sec, in s", "result": "10.2±1.4"}, {"measurement": "onset of anti-allodynic effect, dynamic allodynia", "setting": "[1]; [7]", "result": 30, "unit": "min"}, {"measurement": "effect on CCI-induced static allodynia", "setting": "[2]; [3]", "result": "reversed the maintenance of CCI-induced static and dynamic allodynia in a dose dependent manner"}, {"measurement": "time of peak effect, static allodynia", "setting": "[2]; [4]", "result": 1, "unit": "h"}, {"measurement": "MED for static allodynia", "setting": "[2]; [5]", "result": 1, "unit": "mg/kg"}, {"measurement": "static allodynia reversal, curve profile versus gabapentin", "setting": "[2]; [6]", "result": "comparable to gabapentin"}, {"measurement": "onset of anti-allodynic effect, static allodynia", "setting": "[2]; [7]", "result": 30, "unit": "min"}]}]}
